Measurements reported in patent US9095126B2, “Targeting TGF-β as a therapy for Alzheimer's disease” (Yale University, priority 2008, dated 2015).

B1: BMP-4: recombinant BMP-4, bone morphogenic protein (protein, UniProt P12644 293-408, looked up)
Bone morphogenetic protein 4: SPKHHSQRARKKNKNCRRHSLYVDFSDVGWNDWIVAPPGYQAFYCHGDCPFPLADHLNSTNHAIVQTLVNSVNSSIPKACCVPTELSAISMLYLDEYDKVVLKNYQEMVVEGCGCR

Legend:
[1] = tested on: TGF-β-activated Smad2/3 signaling; test: Western blot for phosphorylated Smad2/3 (canonical TGF-β-activated signaling) in primary macrophages/microglia; assay type: cell-based, mouse; details: for TGF-β1-induced Smad2/3 phosphorylation: peripheral macrophages pre-treated 1 h with 0.1, 1.0 or 10.0 μM ALK5 inhibitor, then TGF-β1 5 ng/mL for 30 min (FIG. 9A); for phosphorylated Smad2/3 after TGF-β1 challenge: TGF-β1 1, 5 or 10 ng/ml with or without LPS 50 ng/ml, 30 min (FIG. 7A)
Protocol: (§1) Cortical microglia were isolated from neonatal (1-2 day-old) CD11c-DNR or wild-type C57BL/6 mice according to previously published methods (Tan et al., 1999 Science 286: 2352-2355; Town et al., 2006 J. Immunol, 176: 3804-3812), Briefly, brains were isolated under sterile conditions and cerebral cortices were incubated in tripsin-EDTA (Invitrogen-Gibco) for 15 min at 37° C. Complete RPMI 1640 medium (supplemented with 10% FCS and 1 mM penicillin-streptomycin) was then added and brains were dissociated by trituration. Subsequently, cerebral cortex material was plated in 25 cm^2 flasks (Fisher Scientific), and the media was changed every 2-3 days. When the appearance of microglia was noted (typically 14 days after plating), culture media was exchanged with RPMI 1640 medium supplemented with 5% FCS, and the microglia were isolated by shaking in an incubator-shaker at 200 rpm for 2 h at 37° C. Peripheral MΦ were isolated from adult CD11c-DNR or wild-type C57BL/6 mice according to standard immunological methods by intraperitoneally (i.p.) injecting mice with 900 μL of 3% (w/v) sterile thioglycollate solution diluted in PBS. Four days later, mice were injected i.p. with 10 mL of ice-cold PBS for peritoneal lavage. Peripheral MΦ were then plated with complete medium (DMEM supplemented with 10% FCS and 1 mM penicillin streptomycin) and allowed to rest overnight. […] Microglia or peripheral MΦ from wild-type or CD11c-DNR mice were plated at 1×10^6 cells/well in 6-well tissue culture plates (BD Biosciences-Falcon) containing complete RPMI 1640 media or complete DMEM, respectively. These cells were then treated with a dose-range of recombinant TGF-β1 (R&D Systems; 1, 5, or 10 ng/mL) in the presence or absence of lipopolysachharide (LPS, 50 ng/mL) for 30 min. In a separate set of experiments, these cells were pre-treated for 1 h with ALK5 inhibitors SB-505124 or SB-431542 (Sigma-Aldrich; used at 0.1, 1.0, or 10.0 μM) and 5 ng/mL of recombinant TGF-β1 was added. For Aβ phagocytosis assay, MΦ were pulse-chased with Aβ as described elsewhere herein. Cells were rinsed in ice-cold PBS three times, and lysed ice-cold lysis buffer (containing 20 mM Tris-HCl pH 7.5, 150 mM NaCl, 1 mM Na2EDTA, 1 mM EGTA, 1% v/v Triton X-100, 2.5 mM sodium pyrophosphate, 1 mM glycerophosphate, 1 mM Na3VO4, 1 μg/ml leupeptin, and 1 mM PMSF). After lysis for 30 min on ice, cell lysates were centrifuged at 15,000×g for 30 min, and supernatants were aliquoted for Western blot analysis. Protein concentration was determined using the Bradford method, and aliquots corresponding to 50 μg of protein were run out on 12% Nu-PAGE™ polyacrylamide gels (Invitrogen) and proteins were transferred electrophoretically to Immobilon-P polyvinylidene difluoride membranes (Millipore). Membranes were blocked in blocking buffer (5% w/v nonfat dry milk in Tris-buffered saline containing 1% v/v Tween-20) for 3 h at ambient temperature and incubated overnight at 4° C. with primary polyclonal antibodies directed against total or phosphorylated SMAD2/3, SMAD1/5/8, PAK2, or ERK1/2 (Cell Signaling Technology). Membranes were then rinsed three times for 5 min each in dH2O, and incubated with anti-rabbit secondary antibody conjugated with horseradish peroxidase (diluted at 1/2000 in blocking buffer; GE Healthcare-Amersham Biosciences). After an additional three rinses for 5 min each in dH2O, the membranes were incubated for 5 min at ambient temperature with the enhanced chemiluminescence substrate (Thermo Fisher Scientific-Pierce Biotechnology), exposed to film, and developed.

[2] = tested on: peripheral macrophages; test: Aβ phagocytosis assay, Aβ488 pulse-chase, confocal microscopy; assay type: cell-based, mouse; details: primary macrophages with ALK5 inhibitor 1 h, pulsed 4 h with pre-aggregated Aβ488, chased 15 min (FIG. 9B-9C)
Protocol: FIG. 9, comprising FIGS. 9A-9F, is a series of images depicting Activin-like kinase (ALK) inhibition increases the ratio of phospho-SMAD1/5/8 to phospho-SMAD2/3 and promotes macrophage Aβ phagocytosis. FIG. 9A depicts peripheral MΦ pre-treated with a dose range (0.1, 1.0, or 10.0 μM) of ALK5 inhibitors (SB-505124 or SB-431542) for 1 h and then cultured in the presence or absence of recombinant TGF-β1 (5 ng/mL) for 30 min as indicated. Upper panels show Western blots for phospho (p) or total forms of SMAD2/3 or SMAD1/5/8. Lower panel is a histogram showing the ratio of pSMAD1/5/8 to pSMAD2/3. […] FIG. 9C depicts quantification of confocal images (n=3 randomly selected 10× magnification fields per group, group means±s.d.), and Aβ488-labeled area is shown in the upper graph, and numbers of Aβ488 phagocytic cells/field are shown in the lower graph. FIGS. 9D-9F depict gender-dependent reductions in Aβ levels in Tg2576+ animals and anti-inflammatory responses in brains of crossed mice. Biochemical analyses of (FIG. 9D) detergent-soluble and (FIG. 9E) guanidine HCl-soluble Aβ1-42 and Aβ1-42/Aβ1-40 in male vs. female Tg2576 positive mice (irrespective of CD11c-DNR transgene status). FIG. 9F depicts Q-PCR results for Tnfa (left) or Il10 (right) expression (relative to Hprt1) shown for four groups of mice, and statistical comparisons vs. wild-type mice. […]

[3] = tested on: bone morphogenic protein-activated Smad1/5/8 signaling; test: Western blot for phosphorylated Smad1/5/8 (alternate bone morphogenic protein-activated signaling) in peripheral macrophages; assay type: cell-based, mouse; details: for ratio of phospho-Smad1/5/8 to phospho-Smad2/3: ALK5 inhibitor treatment alone, 0.1, 1.0 or 10.0 μM, peripheral macrophages (FIG. 9A)
Protocol: as §1

[4] = tested on: microglia; details: exogenous addition of TGF-β1 to microglia (Wyss-Coray et al., 2001); cited from earlier work
[5] = tested on: p21-activated kinase 2 (PAK2); test: Western blot for phosphorylated PAK2 in peripheral macrophages; assay type: cell-based, mouse; details: wild-type peripheral macrophages; for PAK2 phosphorylation: 30 min, TGF-β1 5 ng/mL alone, BMP-2 50-200 ng/mL or BMP-4 12.5-50 ng/mL (FIG. 12B)
Protocol: Cortical microglia were isolated from neonatal (1-2 day-old) CD11c-DNR or wild-type C57BL/6 mice according to previously published methods (Tan et al., 1999 Science 286: 2352-2355; Town et al., 2006 J. Immunol, 176: 3804-3812), Briefly, brains were isolated under sterile conditions and cerebral cortices were incubated in tripsin-EDTA (Invitrogen-Gibco) for 15 min at 37° C. Complete RPMI 1640 medium (supplemented with 10% FCS and 1 mM penicillin-streptomycin) was then added and brains were dissociated by trituration. Subsequently, cerebral cortex material was plated in 25 cm^2 flasks (Fisher Scientific), and the media was changed every 2-3 days. When the appearance of microglia was noted (typically 14 days after plating), culture media was exchanged with RPMI 1640 medium supplemented with 5% FCS, and the microglia were isolated by shaking in an incubator-shaker at 200 rpm for 2 h at 37° C. Peripheral MΦ were isolated from adult CD11c-DNR or wild-type C57BL/6 mice according to standard immunological methods by intraperitoneally (i.p.) injecting mice with 900 μL of 3% (w/v) sterile thioglycollate solution diluted in PBS. Four days later, mice were injected i.p. with 10 mL of ice-cold PBS for peritoneal lavage. Peripheral MΦ were then plated with complete medium (DMEM supplemented with 10% FCS and 1 mM penicillin streptomycin) and allowed to rest overnight.
Microglia or peripheral MΦ from wild-type or CD11c-DNR mice were plated at 1×10^6 cells/well in 6-well tissue culture plates (BD Biosciences-Falcon) containing complete RPMI 1640 media or complete DMEM, respectively. These cells were then treated with a dose-range of recombinant TGF-β1 (R&D Systems; 1, 5, or 10 ng/mL) in the presence or absence of lipopolysachharide (LPS, 50 ng/mL) for 30 min. […] Protein concentration was determined using the Bradford method, and aliquots corresponding to 50 μg of protein were run out on 12% Nu-PAGE™ polyacrylamide gels (Invitrogen) and proteins were transferred electrophoretically to Immobilon-P polyvinylidene difluoride membranes (Millipore). […]

[6] = peripherally isolated macrophages, exogenous TGF-β1 5 ng/mL, 30 min (FIG. 9A)
[7] = wild-type peripheral macrophages, 30 min, TGF-β1 5 ng/mL alone, BMP-2 50-200 ng/mL or BMP-4 12.5-50 ng/mL (FIG. 12B)

Row | Molecule | TGF-β1-induced Smad2/3 phosphorylation [1] | macrophage Aβ phagocytosis (Aβ488-labeled area, Aβ488 phagocytic cells/field) [2] | ratio of phospho-Smad1/5/8 to phospho-Smad2/3 [3] | Smad2/3 phosphorylation [1, 7] | Smad1/5/8 phosphorylation [3, 7] | PAK2 phosphorylation [5] | further results
1 | NC(=O)c1ccc(-c2nc(-c3ccc4c(c3)OCO4)c(-c3ccccn3)[nH]2)cc1 [SB-431542, reference compound] | blocked by ALK5 inhibition in a dose-dependent manner | increased Aβ phagocytosis in a dose-dependent fashion | increased |  |  |  | 
2 | Cc1cccc(-c2[nH]c(C(C)(C)C)nc2-c2ccc3c(c2)OCO3)n1 [SB-505124, reference compound] | blocked by ALK5 inhibition in a dose-dependent manner | increased Aβ phagocytosis in a dose-dependent fashion | increased |  |  |  | 
3 | TGF-β1: recombinant TGF-β1 (R&D Systems), cytokine |  |  |  | promoted Smad2/3 phosphorylation | little impact | little impact | phosphorylated Smad2/3 after TGF-β1 challenge ([1]; CD11c-DNR macrophages): nonresponsive; phosphorylated Smad2/3 after TGF-β1 challenge ([1]; CD11c-DNR microglia): responded to challenge; Smad2/3 phosphorylation ([1]; TGF-β1 5 ng/mL added to the BMP treatment conditions, wild-type peripheral macrophages): further promoted; Smad2/3 phosphorylation [1, 6]: increased phosphorylation; phosphorylated Smad2/3 after TGF-β1 challenge ([1]; wild-type microglia and macrophages): showed phosphorylated Smad2/3; Smad1/5/8 phosphorylation ([3]; CD11c-DNR macrophages, exogenous TGF-β1 and LPS together (FIG. 7B)): further augmented; Smad1/5/8 phosphorylation [3, 6]: increased phosphorylation; Aβ uptake by microglia [4]: promotes increased Aβ uptake; BMP-induced PAK2 phosphorylation ([5]; TGF-β1 5 ng/mL added to the BMP treatment conditions): inhibited
4 | B1 |  |  |  | did not impact | promoted | promoted | ratio of pSmad1/5/8 to pSmad2/3 ([3]; BMP monotreatment compared with TGF-β1 treatment alone, wild-type peripheral macrophages): increased
